According to the NIST ThermoML archive (doi:10.1021/je800290k):
Values joined by “and” are separate entries in the source; they are usually repeats but may differ in a detail not shown here. Equal entries are not always repeated.

Details: Liquid, Ebulliometric method (Recirculating still)

NCCO [2-aminoethan-1-ol]
Details	vapor or sublimation pressure [kPa]
357.46 K	2.98
362.99 K	3.98
369.33 K	5.48
374.29 K	6.98
378.41 K	8.47
384.07 K	10.97
391.14 K	14.96
398.01 K	19.97
403.43 K	24.97
408.19 K	29.97
415.78 K	39.98
415.81 K	39.95
424.61 K	54.95
429.44 K	64.95
431.61 K	69.95
435.61 K	79.95

CNCCCN [N-methyl-1,3-diaminopropane]
Details	vapor or sublimation pressure [kPa]
326.81 K	3.46
331.62 K	4.47
337.36 K	5.97
343.91 K	7.97
353.78 K	12.48
365.76 K	20.47
372.77 K	27.96
383.53 K	39.97
397.99 K	64.98
404.7 K	79.98
412.5 K	101.27

CN(CCO)CCO [N-methyldiethanolamine]
Details	vapor or sublimation pressure [kPa]
409.69 K	2.48
413.43 K	2.98
416.72 K	3.48
421.96 K	4.48
426.65 K	5.48
430.48 K	6.48
435.5 K	7.98

O [water]
Details	vapor or sublimation pressure
311.63 K	6.78 kPa
313.24 K	7.38 kPa
314.99 K	8.11 kPa
323.11 K	12.28 kPa
323.14 K	12.28 kPa
323.15 K	12.27 kPa
325.47 K	13.78 kPa
325.61 K	13.8 kPa
332.76 K	19.84 kPa
332.85 K	19.84 kPa
333.13 K	19.58 kPa
333.17 K	19.88 kPa and 19.88 kPa
333.18 K	19.88 kPa and 19.88 kPa
333.19 K	19.87 kPa
340.41 K	27.6 kPa
340.44 K	27.58 kPa
340.47 K	27.6 kPa
348.8 K	39.83 kPa
348.84 K	39.83 kPa
349.91 K	41.4 kPa
349.94 K	41.39 kPa
349.97 K	41.4 kPa
353.14 K	47.18 kPa and 47.19 kPa
353.15 K	47.18 kPa
357.02 K	55.17 kPa
357.07 K	55.18 kPa
357.08 K	55.17 kPa
358.87 K	59.88 kPa
358.92 K	59.88 kPa
362.55 K	68.92 kPa
362.59 K	68.92 kPa
362.8 K	69 kPa
362.83 K	69 kPa and 68.98 kPa
362.89 K	69.83 kPa
362.93 K	69.83 kPa
367.48 K	82.79 kPa
367.49 K	82.79 kPa
367.67 K	82.79 kPa
367.69 K	82.79 kPa and 82.78 kPa
371.67 K	96.51 kPa
371.7 K	96.51 kPa
371.9 K	96.47 kPa
371.91 K	96.58 kPa
372.69 K	99.28 kPa
372.86 K	100.59 kPa
372.89 K	100.59 kPa
373.16 K	100.98 kPa and 100.98 kPa
